Source: ChEMBL document CHEMBL1201862, “PubChem BioAssay data set” (2004)
The source made the active and inactive calls.

Tests used:
[1] = P. falciparum late gametocyte killing, dose response, luminescence (AID 1117278); type: functional, cell-based;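 also: gametocytes exposed to compound for 24 hours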
[2] = Jurkat T cell cytotoxicity, dose response, cytotoxicity control for P. falciparum gametocyte viability project, luminescence (AID 1117277); type: functional, cell-based;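 also: potency reflects loss of cellular ATP meaning fewer viable cells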
[3] = growth suppression of PTEN-null colon cells, dose response, cell-based, HCT116 PTEN knockout (AID 1047); type: functional;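 also: HCT116 colon tumor cells with PTEN knocked out; cells exposed to compound for 60 hours before readout; potency for loss of cell viability measured by luminescence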
[4] = target: T1, Calpain-2 catalytic subunit (Sus scrofa, UniProt P43367); test: pig calpain II inhibitor potency, dose response, biochemical, fluorogenic peptide substrate (AID 1420); type: functional
T1 sequence (P43367 whole entry): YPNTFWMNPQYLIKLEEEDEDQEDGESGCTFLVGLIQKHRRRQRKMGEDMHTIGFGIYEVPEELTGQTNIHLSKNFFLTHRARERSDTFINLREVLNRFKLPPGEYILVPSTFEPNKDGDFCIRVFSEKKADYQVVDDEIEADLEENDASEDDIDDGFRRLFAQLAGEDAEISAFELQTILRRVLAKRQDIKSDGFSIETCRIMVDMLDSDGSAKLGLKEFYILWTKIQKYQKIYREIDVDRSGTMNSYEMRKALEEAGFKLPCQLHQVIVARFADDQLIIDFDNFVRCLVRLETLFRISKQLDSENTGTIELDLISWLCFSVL

[5] = growth suppression of beta-catenin-knockout colon cells, dose response, cell-based, HCT116, human colon tumor (AID 1045); type: functional;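 also: HCT116 colon tumor cells with beta catenin knocked out; cells exposed to compound for 60 hours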
[6] = target: T2, Mannose-6-phosphate isomerase (Homo sapiens, UniProt P34949); test: human PMI inhibitors, high substrate, primary screen, biochemical, fluorescence intensity, high mannose 6-phosphate (AID 1220)
T2 sequence (P34949 whole entry): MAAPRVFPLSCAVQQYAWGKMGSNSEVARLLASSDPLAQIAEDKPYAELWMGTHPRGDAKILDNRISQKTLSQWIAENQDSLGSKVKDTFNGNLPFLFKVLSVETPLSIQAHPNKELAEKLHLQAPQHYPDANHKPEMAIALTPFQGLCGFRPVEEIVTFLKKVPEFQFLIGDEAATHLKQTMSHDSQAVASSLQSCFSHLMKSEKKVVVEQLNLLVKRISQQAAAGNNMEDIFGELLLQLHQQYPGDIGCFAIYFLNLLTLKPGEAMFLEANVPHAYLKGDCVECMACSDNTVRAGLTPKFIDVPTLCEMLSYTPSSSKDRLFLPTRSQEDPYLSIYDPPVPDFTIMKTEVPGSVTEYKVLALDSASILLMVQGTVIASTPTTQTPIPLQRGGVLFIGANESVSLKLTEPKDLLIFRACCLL

[7] = target: T3, Hexokinase HKDC1 (Homo sapiens, UniProt Q2TB90); test: HKDC1 hexokinase inhibitors, dose response, biochemical, W721R variant (AID 504729); type: functional
T3 sequence (Q2TB90 whole entry): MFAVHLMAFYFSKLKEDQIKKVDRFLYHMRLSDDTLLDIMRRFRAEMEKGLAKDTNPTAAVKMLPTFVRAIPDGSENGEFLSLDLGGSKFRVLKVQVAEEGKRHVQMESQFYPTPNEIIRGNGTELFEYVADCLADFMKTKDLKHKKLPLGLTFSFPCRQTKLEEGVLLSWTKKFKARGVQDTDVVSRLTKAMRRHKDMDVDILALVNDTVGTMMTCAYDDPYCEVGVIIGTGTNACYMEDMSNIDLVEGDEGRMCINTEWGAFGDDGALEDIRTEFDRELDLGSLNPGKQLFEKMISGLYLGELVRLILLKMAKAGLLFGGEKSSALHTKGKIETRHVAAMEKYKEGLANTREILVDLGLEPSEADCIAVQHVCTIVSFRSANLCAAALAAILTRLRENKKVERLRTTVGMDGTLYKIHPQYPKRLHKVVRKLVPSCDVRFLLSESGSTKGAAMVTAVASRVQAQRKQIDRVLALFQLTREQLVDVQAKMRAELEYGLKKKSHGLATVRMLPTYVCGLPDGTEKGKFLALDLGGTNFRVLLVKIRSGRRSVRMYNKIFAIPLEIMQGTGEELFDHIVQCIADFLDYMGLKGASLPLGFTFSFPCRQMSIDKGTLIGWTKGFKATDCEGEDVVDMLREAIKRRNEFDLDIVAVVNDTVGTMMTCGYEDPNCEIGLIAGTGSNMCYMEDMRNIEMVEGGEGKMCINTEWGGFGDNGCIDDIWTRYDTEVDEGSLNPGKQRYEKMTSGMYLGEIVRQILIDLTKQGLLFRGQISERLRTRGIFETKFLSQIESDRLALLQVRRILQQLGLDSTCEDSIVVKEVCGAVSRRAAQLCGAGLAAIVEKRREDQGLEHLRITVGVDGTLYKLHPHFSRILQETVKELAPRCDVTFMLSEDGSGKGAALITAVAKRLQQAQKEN

[8] = tested on: HEK293; test: inhibitors of LMP1-driven NF-kB reporter, dose response, cell-based, HEK293, luciferase, cherry-pick (AID 588343); type: functional; details: Homo sapiens
[9] = target: DNA (cytosine-5)-methyltransferase 1 (Homo sapiens, UniProt P26358); test: DNMT1 methyltransferase inhibitors, confirmation, biochemical, fluorescent molecular beacon (AID 602386); type: functional
DNA (cytosine-5)-methyltransferase 1, sequence (P26358 whole entry, the tested form may be a part): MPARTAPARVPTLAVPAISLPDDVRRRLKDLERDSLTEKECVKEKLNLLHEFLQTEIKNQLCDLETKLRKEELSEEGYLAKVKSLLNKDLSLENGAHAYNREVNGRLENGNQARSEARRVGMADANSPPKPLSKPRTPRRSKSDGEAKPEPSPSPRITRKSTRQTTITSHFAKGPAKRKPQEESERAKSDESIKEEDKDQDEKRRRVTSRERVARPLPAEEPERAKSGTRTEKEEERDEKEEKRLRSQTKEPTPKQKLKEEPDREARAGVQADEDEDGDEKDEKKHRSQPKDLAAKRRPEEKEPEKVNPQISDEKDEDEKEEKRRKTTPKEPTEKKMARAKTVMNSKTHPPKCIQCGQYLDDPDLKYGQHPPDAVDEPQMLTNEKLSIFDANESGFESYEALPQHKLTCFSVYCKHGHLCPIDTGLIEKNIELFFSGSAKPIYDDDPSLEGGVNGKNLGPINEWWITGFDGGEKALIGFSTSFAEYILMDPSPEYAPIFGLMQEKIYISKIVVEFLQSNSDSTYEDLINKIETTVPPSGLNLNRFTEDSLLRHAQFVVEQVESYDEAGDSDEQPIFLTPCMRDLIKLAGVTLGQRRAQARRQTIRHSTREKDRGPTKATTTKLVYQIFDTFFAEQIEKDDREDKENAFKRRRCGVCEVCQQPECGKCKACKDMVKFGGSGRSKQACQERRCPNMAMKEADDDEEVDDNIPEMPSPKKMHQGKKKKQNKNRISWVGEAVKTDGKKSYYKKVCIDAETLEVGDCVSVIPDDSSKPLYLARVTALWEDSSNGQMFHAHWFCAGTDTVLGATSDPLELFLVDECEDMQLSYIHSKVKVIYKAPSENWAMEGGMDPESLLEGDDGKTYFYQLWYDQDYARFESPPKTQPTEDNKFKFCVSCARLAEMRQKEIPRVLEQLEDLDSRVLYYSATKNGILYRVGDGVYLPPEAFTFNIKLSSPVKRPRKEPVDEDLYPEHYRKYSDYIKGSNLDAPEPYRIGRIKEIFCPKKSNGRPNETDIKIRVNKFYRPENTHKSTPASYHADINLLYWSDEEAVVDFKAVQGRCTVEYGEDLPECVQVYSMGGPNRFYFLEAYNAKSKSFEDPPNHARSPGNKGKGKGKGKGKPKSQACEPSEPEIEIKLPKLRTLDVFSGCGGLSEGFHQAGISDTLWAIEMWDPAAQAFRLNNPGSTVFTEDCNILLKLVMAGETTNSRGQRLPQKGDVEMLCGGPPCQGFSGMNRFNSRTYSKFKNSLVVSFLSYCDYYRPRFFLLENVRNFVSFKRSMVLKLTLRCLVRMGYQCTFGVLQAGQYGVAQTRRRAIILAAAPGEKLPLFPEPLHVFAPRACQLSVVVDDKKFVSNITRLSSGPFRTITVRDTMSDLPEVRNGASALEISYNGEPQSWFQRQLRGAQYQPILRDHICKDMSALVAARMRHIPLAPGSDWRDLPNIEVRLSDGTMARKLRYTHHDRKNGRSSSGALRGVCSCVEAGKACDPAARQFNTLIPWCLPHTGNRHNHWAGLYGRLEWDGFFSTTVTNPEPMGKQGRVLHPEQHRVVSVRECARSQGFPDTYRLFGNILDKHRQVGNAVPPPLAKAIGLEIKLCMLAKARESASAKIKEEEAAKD

[10] = target: Hepatocyte nuclear factor 4-alpha (Homo sapiens, UniProt P41235); type: functional, cell-based;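 also: biochemical luminescence-based dose-response counterscreen measuring inhibition of HNF4 dimerization, run alongside a screen for blockers of ABHD5–perilipin-5 interaction; split luciferase complementation of HNF4 fusion proteins in cell lysate measuring dimerization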
Hepatocyte nuclear factor 4-alpha, sequence (P41235 whole entry, the tested form may be a part): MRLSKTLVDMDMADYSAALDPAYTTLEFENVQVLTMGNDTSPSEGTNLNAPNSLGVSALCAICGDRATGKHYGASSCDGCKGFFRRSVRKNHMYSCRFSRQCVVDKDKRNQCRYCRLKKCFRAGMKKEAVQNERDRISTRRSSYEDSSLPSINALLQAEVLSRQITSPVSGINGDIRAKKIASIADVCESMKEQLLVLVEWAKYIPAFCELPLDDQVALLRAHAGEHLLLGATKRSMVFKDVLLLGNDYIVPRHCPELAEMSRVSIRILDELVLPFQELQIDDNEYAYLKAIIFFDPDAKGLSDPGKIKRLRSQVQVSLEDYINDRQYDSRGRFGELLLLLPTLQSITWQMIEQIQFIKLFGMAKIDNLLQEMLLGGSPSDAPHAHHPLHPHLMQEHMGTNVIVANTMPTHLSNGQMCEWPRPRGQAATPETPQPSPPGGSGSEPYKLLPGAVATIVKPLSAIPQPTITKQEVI

[11] = Artemis endonuclease inhibitor potency, dose response, biochemical, fluorescence intensity (AID 720701); type: functional;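 also: Artemis endonuclease enzyme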
[12] = inhibitors of firefly luciferase expression or activity, dose response, H4 neuroglioma cells, luminescence (AID 1990); type: functional, cell-based
[13] = luciferase reporter signal reduction – luminescence, H4-C neuroglioblastoma cells, dose response (AID 2458); type: functional, cell-based;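 also: H4 neuroglioblastoma cells stably carrying a luciferase reporter gene fusion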
[14] = target: T4, RNA-binding protein pos-1 (Caenorhabditis elegans, UniProt G5EF15); test: inhibitors of POS-1/mex-3 RNA binding, dose response, biochemical, fluorescence polarization (AID 1964);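 also: purified POS-1 fused to maltose binding protein made in E. coli; potency of compounds blocking POS-1 binding to fluorescent RNA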
T4 sequence (G5EF15 whole entry): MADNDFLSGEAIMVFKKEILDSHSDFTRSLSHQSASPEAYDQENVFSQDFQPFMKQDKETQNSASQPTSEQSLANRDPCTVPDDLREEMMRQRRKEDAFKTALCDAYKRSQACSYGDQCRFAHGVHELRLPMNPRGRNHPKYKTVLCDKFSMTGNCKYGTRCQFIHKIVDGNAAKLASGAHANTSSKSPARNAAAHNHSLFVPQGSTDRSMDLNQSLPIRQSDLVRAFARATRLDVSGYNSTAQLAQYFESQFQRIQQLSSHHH

[15] = Luminescence Cell-Based Dose Response HTS to Identify Inhibitors of 5'UTR Stem-Loop Driven Prion Protein mRNA Translation in H4 Neuroglioblastoma Cells. [Related pubchem assays: 1827 (Project Summary), 1813 (Primary HTS)]; type: functional
[16] = target: T5, Zinc finger protein mex-5 (Caenorhabditis elegans, UniProt Q9XUB2); test: MEX-5/TCR-2 RNA interaction inhibitors, dose response, biochemical, C. elegans, fluorescence polarization (AID 1960)
T5 sequence (Q9XUB2 whole entry): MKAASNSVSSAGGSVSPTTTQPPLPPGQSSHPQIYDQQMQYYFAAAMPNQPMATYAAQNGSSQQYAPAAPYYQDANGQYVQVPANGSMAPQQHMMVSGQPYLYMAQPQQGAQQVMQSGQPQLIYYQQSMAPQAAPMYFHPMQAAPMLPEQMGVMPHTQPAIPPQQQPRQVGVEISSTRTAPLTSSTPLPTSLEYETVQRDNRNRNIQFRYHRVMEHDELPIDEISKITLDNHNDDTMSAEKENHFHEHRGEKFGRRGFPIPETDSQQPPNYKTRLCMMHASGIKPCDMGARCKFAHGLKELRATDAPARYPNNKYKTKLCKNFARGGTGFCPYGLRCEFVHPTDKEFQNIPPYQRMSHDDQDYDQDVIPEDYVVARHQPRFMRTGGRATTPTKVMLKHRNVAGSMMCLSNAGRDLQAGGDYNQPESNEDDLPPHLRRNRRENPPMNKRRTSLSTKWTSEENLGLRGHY

[17] = inhibitors of SNCA 5'UTR-driven reporter translation, confirmation, H4 neuroglioma cells, luminescence (AID 1988); type: functional, cell-based
[18] = inhibitors of SNCA 5'UTR-driven translation, confirmation, luminescence, H4 neuroglioblastoma cells, dose confirmation (AID 2454); type: functional, cell-based;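 also: H4 neuroglioblastoma cells carrying an alpha-synuclein 5'UTR luciferase reporter; potency for inhibition of the luciferase signal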
[19] = target: Glucose-6-phosphate 1-dehydrogenase (Homo sapiens, UniProt P11413); test: human G6PD enzyme inhibitors, dose response, selectivity assay for P. falciparum G6PD inhibitor project, biochemical, fluorescence (AID 504792); type: functional
Glucose-6-phosphate 1-dehydrogenase, sequence (P11413 whole entry): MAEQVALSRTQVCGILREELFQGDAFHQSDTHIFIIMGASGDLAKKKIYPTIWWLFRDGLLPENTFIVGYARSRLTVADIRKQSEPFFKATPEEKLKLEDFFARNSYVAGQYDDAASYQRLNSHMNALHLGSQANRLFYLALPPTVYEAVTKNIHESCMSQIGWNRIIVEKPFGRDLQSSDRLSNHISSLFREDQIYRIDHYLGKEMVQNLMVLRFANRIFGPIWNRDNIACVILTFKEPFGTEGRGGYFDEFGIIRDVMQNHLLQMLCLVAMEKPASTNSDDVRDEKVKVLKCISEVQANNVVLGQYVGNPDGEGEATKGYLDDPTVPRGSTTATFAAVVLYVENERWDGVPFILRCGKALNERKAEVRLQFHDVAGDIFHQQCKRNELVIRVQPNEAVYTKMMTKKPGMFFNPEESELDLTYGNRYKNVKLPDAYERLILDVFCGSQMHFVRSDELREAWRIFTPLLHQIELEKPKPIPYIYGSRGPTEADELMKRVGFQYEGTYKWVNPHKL

[20] = target: Protein Tat (Human immunodeficiency virus type 1 group M subtype B (isolate HXB2)(HIV-1), UniProt P04608); type: functional;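 also: tat binding to TAR RNA read out by fluorescence polarization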
Protein Tat, sequence (P04608 whole entry): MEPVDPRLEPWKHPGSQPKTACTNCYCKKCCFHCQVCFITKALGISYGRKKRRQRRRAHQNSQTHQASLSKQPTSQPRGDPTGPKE

[21] = A Cell Based Secondary Assay To Explore Cytotoxicity of Compounds that Sensitize Mycobacterium Tuberculosis to Beta-Lactam Antibiotics.; type: functional
[22] = tested on: Vero; test: West Nile virus antiviral activity, cell-based, CPE readout (AID 1621); type: functional; details: Chlorocebus sabaeus
[23] = tested on: Vero; test: cells; type: functional, cell-based; details: Chlorocebus sabaeus
[24] = target: Diphosphomevalonate decarboxylase (Streptococcus pneumoniae serotype 2 (strain D39 / NCTC 7466), UniProt Q9FD53); test: S. pneumoniae DPM-DC inhibition retest, confirmation, biochemical, cuvette format, coupled NADH fluorescence (AID 1028); type: functional
Diphosphomevalonate decarboxylase, sequence (Q9FD53 whole entry): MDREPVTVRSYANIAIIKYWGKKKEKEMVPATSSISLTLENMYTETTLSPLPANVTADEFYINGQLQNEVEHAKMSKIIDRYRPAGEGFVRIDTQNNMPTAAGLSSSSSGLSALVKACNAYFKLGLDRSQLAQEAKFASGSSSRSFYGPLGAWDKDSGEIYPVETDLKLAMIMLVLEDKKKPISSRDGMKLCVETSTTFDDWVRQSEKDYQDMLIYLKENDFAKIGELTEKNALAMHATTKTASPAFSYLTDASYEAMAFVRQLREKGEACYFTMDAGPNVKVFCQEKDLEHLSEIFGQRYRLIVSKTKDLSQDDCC

## Nc1ccc(-c2cnc(-c3ccc(N)cc3)nc2)cc1
[1]
  IC50: > 109 µM (inactive)
[2]
  IC50: > 83.3 µM (inactive)

## Cc1oc2c(c1C(=O)c1ccc(Cl)cc1)C(=O)C(=O)c1ccccc1-2
[3]
  EC50: 2.63 µM (active)
[4]
  IC50: < 0.4 µM (not active)
[5]
  EC50: 2.36 µM (active)
[6]
  IC50: > 50 µM (not active)
[7]
  IC50: 8.83 µM (active)
[8]
  AC50: 11.7 µM (active)
[9]
  IC50: 6.05 µM (active)
[10]
  IC50: 3.58 µM (active)
[11]
  IC50: 1.12 µM (active)

## Cc1ccc2nc3sc(C(=O)N4CCOCC4)c(N)c3cc2c1
[12]
  EC50: 2.01 µM (active)
[13]
  EC50: > 12 µM (inconclusive)
[14]
  EC50: 46.8 µM (active)
[15]
  EC50: < 0.1 µM (active)
[16]
  EC50: > 300 µM (inconclusive)
[17]
  EC50: 2.37 µM (active)
[18]
  EC50: 0.927 µM (active)
[19]
  IC50: > 80 µM (inactive)

## COc1ccc(C2CC(=O)Oc3cc(OC)ccc32)cc1 (centres undefined)
[20]
  IC50: > 100 µM (active)

## NC1=C(c2nc(-c3ccc(Cl)cc3)cs2)C(=O)CN1CCCN1CCOCC1
[21]
  CC50: > 40 µM (active)
[22]
  IC50: 24.2 µM (active)
[23]
  IC50: 22 µM (active)

## Cc1ccc(-n2sc3ccccc3c2=O)cc1C(=O)N1CCCCC1
[24]
  IC50: 19.7 µM (active)
